# Source: patent US20060276406A1, “Methods of treating hepatitis C virus” (Schering Corporation, priority 2005, published 2006)
# Columns and labels:
# [1] = Solubility in water / aqueous systems; format: physicochemical
# [2] = Treatment study: plasma Cmin after oral dosing for 14 days in HCV genotype-1 patients; format: in vivo, human; conditions: for Plasma Mean Cmin at 0 hour (trough) predose: 14 days, preliminary mean
# Experimental: FIG. 2 is a box plot showing trough plasma levels of a compound of Formula Ia measured on day 14 at various times when a compound of Formula Ia is administered twice per day (bid, left box) and when a compound of Formula Ia is administered three times per day (tid, right box). It has been determined that metabolism of compounds of the present invention is also affected by the patient's circadian rhythm. As shown in FIG. 2 (right hand box), plasma levels of the drug are highest in the morning, when measured 8 hours after the previous dose and before the morning dose is administered.
smiles,measurement,setting,value
"CC(C)(C)NC(=O)N[C@H](C(=O)N1CC2C([C@H]1C(=O)NC(CC1CCC1)C(=O)C(N)=O)C2(C)C)C(C)(C)C (stereo partly drawn) [Formula Ia, (1R,5S)-N-[3-Amino-1-(Cyclobutylmethyl)-2,3-Dioxopropyl]-3-[2(S)-[[[(1,1-Dimethylethyl)Amino]Carbonyl]Amino]-3,3-Dimethyl-1-Oxobutyl]-6,6-Dimethyl-3-Azabicyclo[3.1.0]Hexan-2(S)-Carboxamide]",solubility,[1],~600 µg/mL
same,Plasma Mean Cmin at 0 hour (trough) predose,"[2]; 100 mg BID oral, n = 12, HCV genotype-1 patients",Cmin = 12.7 ng/ml
same,Plasma Mean Cmin at 0 hour (trough) predose,"[2]; 200 mg BID oral, n = 12, HCV genotype-1 patients",Cmin = 46.3 ng/ml
same,Plasma Mean Cmin at 0 hour (trough) predose,"[2]; 400 mg BID oral, n = 11, HCV genotype-1 patients",Cmin = 48.8 ng/ml
same,Plasma Mean Cmin at 0 hour (trough) predose,"[2]; 400 mg TID oral, n = 10, HCV genotype-1 patients",Cmin = 183 ng/ml
same,average Cmin plasma concentration maintained,[2]; all dosing regimens of Table 1,≥ 10 ng/mL
